{"source": "ChEMBL document CHEMBL4725294", "about": "“Centrally Active Multitarget Anti-Alzheimer Agents Derived from the Antioxidant Lead CR-6” (J Med Chem, 2020)", "key": {"[1]": {"molecular_target": "Beta-secretase 1 (Homo sapiens, UniProt P56817)", "sequence (P56817 whole entry)": "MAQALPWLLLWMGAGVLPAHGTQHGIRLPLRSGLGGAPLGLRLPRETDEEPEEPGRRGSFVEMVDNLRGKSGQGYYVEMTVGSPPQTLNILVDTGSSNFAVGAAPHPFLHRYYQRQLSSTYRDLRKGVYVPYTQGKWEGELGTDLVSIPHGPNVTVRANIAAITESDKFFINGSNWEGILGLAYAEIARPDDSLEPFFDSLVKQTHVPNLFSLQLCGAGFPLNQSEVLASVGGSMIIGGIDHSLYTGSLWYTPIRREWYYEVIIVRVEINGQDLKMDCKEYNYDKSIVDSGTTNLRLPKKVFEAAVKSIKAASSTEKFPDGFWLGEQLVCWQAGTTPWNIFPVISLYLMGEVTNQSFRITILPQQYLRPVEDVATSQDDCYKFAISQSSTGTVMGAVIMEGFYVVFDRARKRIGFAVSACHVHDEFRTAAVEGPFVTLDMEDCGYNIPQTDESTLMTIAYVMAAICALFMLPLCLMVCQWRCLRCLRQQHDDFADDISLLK", "test": "Inhibition human BACE1 expressed in baculovirus expression system using Panvera peptide as substrate measured after 60 mins by fluorescence assay", "settings": "read-out: IC50"}, "[2]": {"test": "Acute toxicity in C57BL6/J mouse at 5 to 10 mg/kg, ip measured up to 24 hrs", "type": "organism-based", "settings": "in vivo, dose 5-10 mg/kg"}, "[3]": {"test": "Acute toxicity in C57BL6/J mouse assessed as reduction in locomotor activity at 15 mg/kg, ip measured after 10 to 15 mins", "type": "organism-based", "settings": "in vivo, time 10-15 min"}, "[4]": {"test": "Acute toxicity in C57BL6/J mouse assessed as piloerection at 15 mg/kg, ip measured after 10 to 15 mins", "type": "organism-based", "settings": "in vivo, time 10-15 min"}, "[5]": {"test": "Acute toxicity in C57BL6/J mouse assessed as ptosis at 15 mg/kg, ip measured after 10 to 15 mins", "type": "organism-based", "settings": "in vivo, time 10-15 min"}, "[6]": {"test": "Acute toxicity in C57BL6/J mouse assessed as tremor at 15 mg/kg, ip measured after 10 to 15 mins", "type": "organism-based", "settings": "in vivo, time 10-15 min"}, "[7]": {"test": "Acute toxicity in C57BL6/J mouse at 15 mg/kg, ip measured after 3 hrs", "type": "organism-based", "settings": "in vivo"}, "[8]": {"system": "Mus musculus", "test": "Improvement in memory impairment in APP/PS1 double mutant-transgenic C57BL6/J mouse model assessed as […] at 10 mg/kg/day, ip for 4 weeks followed by compound washout by maze two-object recognition test", "type": "functional, organism-based"}, "[9]": {"system": "Mus musculus", "test": "Antialzheimer activity in APP/PS1 double mutant-transgenic C57BL6/J mouse model assessed as reduction in amyloid beta burden in cortex at 10 mg/kg/day, ip for 4 weeks followed by compound washout and measured after 24 hrs by hematoxylin staining based microscopic analysis", "type": "functional, organism-based"}, "[10]": {"system": "Mus musculus", "test": "Antialzheimer activity in APP/PS1 double mutant-transgenic C57BL6/J mouse model assessed as reduction in soluble amyloid beta 40 level in cortex at 10 mg/kg/day, ip for 4 weeks followed by compound washout and measured after 24 hrs by ELISA", "type": "functional, organism-based"}, "[11]": {"system": "Mus musculus", "test": "Antialzheimer activity in APP/PS1 double mutant-transgenic C57BL6/J mouse model assessed as reduction in soluble amyloid beta 42 level in cortex at 10 mg/kg/day, ip for 4 weeks followed by compound washout and measured after 24 hrs by ELISA", "type": "functional, organism-based"}, "[12]": {"system": "Mus musculus", "test": "Antialzheimer activity in APP/PS1 double mutant-transgenic C57BL6/J mouse model assessed as increase in Adam10 gene expression at 10 mg/kg/day, ip for 4 weeks followed by compound washout and measured after 24 hrs by qPCR analysis", "type": "functional, organism-based"}, "[13]": {"system": "Mus musculus", "test": "Antialzheimer activity in APP/PS1 double mutant-transgenic C57BL6/J mouse model assessed as reduction in Bace1 gene expression at 10 mg/kg/day, ip for 4 weeks followed by compound washout and measured after 24 hrs by qPCR analysis", "type": "functional, organism-based"}, "[14]": {"system": "Mus musculus", "test": "Antialzheimer activity in APP/PS1 double mutant-transgenic C57BL6/J mouse model assessed as increase in Adam10 expression at 10 mg/kg/day, ip for 4 weeks followed by compound washout and measured after 24 hrs by Western blot analysis", "type": "functional, organism-based"}, "[15]": {"system": "Mus musculus", "test": "Antialzheimer activity in APP/PS1 double mutant-transgenic C57BL6/J mouse model assessed as reduction in Bace1 expression at 10 mg/kg/day, ip for 4 weeks followed by compound washout and measured after 24 hrs by Western blot analysis", "type": "functional, organism-based"}, "[16]": {"system": "Mus musculus", "test": "Antialzheimer activity in APP/PS1 double mutant-transgenic C57BL6/J mouse model assessed as reduction in oxidized protein level at 10 mg/kg/day, ip for 4 weeks followed by compound washout and measured after 24 hrs by Western blot analysis", "type": "functional, organism-based"}, "[17]": {"system": "Mus musculus", "test": "Antialzheimer activity in APP/PS1 double mutant-transgenic C57BL6/J mouse model assessed as increase in SOD2 level at 10 mg/kg/day, ip for 4 weeks followed by compound washout and measured after 24 hrs by double immunostaining assay", "type": "functional, organism-based"}, "[18]": {"system": "Mus musculus", "test": "Antialzheimer activity in APP/PS1 double mutant-transgenic C57BL6/J mouse model assessed as increase in Nrf2 level at 10 mg/kg/day, ip for 4 weeks followed by compound washout and measured after 24 hrs by Western blot analysis", "type": "functional, organism-based"}, "[19]": {"system": "Mus musculus", "test": "Antialzheimer activity in APP/PS1 double mutant-transgenic C57BL6/J mouse model assessed as increase in GPX1 level at 10 mg/kg/day, ip for 4 weeks followed by compound washout and measured after 24 hrs by Western blot analysis", "type": "functional, organism-based"}, "[20]": {"molecular_target": "Acetylcholinesterase (Homo sapiens, UniProt P22303)", "sequence (P22303 whole entry)": "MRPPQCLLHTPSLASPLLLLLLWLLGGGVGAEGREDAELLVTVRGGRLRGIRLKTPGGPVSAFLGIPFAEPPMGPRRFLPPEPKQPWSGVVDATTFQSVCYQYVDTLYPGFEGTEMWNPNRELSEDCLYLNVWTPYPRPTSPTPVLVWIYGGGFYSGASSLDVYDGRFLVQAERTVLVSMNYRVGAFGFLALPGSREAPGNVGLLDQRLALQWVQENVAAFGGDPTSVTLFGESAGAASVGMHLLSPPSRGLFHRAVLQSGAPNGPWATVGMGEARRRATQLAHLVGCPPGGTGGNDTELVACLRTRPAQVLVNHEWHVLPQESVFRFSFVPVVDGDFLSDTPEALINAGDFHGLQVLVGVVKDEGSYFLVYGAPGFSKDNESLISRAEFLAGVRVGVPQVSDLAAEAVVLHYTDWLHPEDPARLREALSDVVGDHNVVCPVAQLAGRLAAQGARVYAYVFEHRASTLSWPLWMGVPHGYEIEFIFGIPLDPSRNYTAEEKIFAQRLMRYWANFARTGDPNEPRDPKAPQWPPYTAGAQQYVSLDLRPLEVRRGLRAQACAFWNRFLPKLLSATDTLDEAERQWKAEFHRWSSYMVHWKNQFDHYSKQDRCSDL", "description": "Inhibition of recombinant human AChE expressed in HEK293 cells using acetylthiocholine iodide as substrate preincubated for 15 mins followed by substrate addition by Ellman's method"}, "[21]": {"molecular_target": "Cholinesterase (Homo sapiens, UniProt P06276)", "sequence (P06276 whole entry)": "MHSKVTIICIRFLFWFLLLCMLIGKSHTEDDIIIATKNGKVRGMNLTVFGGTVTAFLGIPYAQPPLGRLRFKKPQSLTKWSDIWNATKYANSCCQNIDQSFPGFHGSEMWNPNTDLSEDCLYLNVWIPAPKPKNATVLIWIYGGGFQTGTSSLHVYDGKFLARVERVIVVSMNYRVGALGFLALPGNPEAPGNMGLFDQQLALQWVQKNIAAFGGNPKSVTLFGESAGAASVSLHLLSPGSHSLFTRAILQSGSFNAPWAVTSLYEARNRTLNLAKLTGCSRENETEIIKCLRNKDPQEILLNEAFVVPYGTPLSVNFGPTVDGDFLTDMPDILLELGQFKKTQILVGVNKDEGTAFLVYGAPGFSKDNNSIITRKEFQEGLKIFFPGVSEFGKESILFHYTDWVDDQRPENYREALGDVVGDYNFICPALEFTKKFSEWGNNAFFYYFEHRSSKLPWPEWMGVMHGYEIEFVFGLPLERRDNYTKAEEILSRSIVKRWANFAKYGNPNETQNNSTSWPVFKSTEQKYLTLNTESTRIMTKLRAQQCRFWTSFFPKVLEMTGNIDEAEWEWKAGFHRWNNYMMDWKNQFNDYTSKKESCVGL", "description": "Inhibition of recombinant human BChE using butyrylthiocholine iodide as substrate preincubated for 15 mins followed by substrate addition by Ellman's method"}, "[22]": {"test": "in vitro", "settings": "PAMPA", "description": "Permeability of compound in PBS/EtOH buffer (7:3) PAMPA-BBB assay"}}, "note": "Activity calls are given as the source filed them. The calls are words filed in the database; no cut-off is given here.", "data": [{"molecule": "COc1cc2c(cc1OCc1ccccc1)CCC(C)(CC(=O)NCCCCCCCCNc1c3c(nc4cc(Cl)ccc14)CCCC3)O2", "note": "(configuration not stated)", "values": [{"measurement": "IC50", "setting": "[1]", "result": 8310, "unit": "nM"}, {"measurement": "Activity", "setting": "[2]", "result": "Non-Toxic"}, {"measurement": "Activity", "setting": "[3]", "result": "Toxic"}, {"measurement": "Activity", "setting": "[4]", "result": "Toxic"}, {"measurement": "Activity", "setting": "[5]", "result": "Toxic"}, {"measurement": "Activity", "setting": "[6]", "result": "Toxic"}, {"measurement": "Activity", "setting": "[7]", "result": "Non-Toxic"}, {"measurement": "Activity", "setting": "[8]", "result": "inactive"}, {"measurement": "Activity", "setting": "[9]", "result": "inactive"}, {"measurement": "Activity", "setting": "[10]", "result": "inactive"}, {"measurement": "Activity", "setting": "[11]", "result": "inactive"}, {"measurement": "Activity", "setting": "[12]", "result": "Active"}, {"measurement": "Activity", "setting": "[13]", "result": "Active"}, {"measurement": "Activity", "setting": "[14]", "result": "Active"}, {"measurement": "Activity", "setting": "[15]", "result": "inactive"}, {"measurement": "Activity", "setting": "[16]", "result": "inactive"}, {"measurement": "Activity", "setting": "[17]", "result": "inactive"}, {"measurement": "Activity", "setting": "[18]", "result": "inactive"}, {"measurement": "Activity", "setting": "[19]", "result": "inactive"}, {"measurement": "IC50", "setting": "[20]", "result": 10.4, "unit": "nM"}, {"measurement": "IC50", "setting": "[21]", "result": 100, "unit": "nM"}, {"measurement": "Papp", "setting": "[22]", "result": 12.3, "unit": "×10⁻⁶ cm/s"}]}]}
